Test results: ChEMBL document CHEMBL5375978, “Harnessing the Reactivity of Duclauxin toward Obtaining hPTP1B1-400 Inhibitors” (J Med Chem, 2023)
Calls of active or inactive are those of the source. The calls are words filed in the database; no cut-off is given here.

Columns and labels:
[1] = target: T1, Tyrosine-protein phosphatase non-receptor type 1 (Homo sapiens, UniProt P18031); experiment: Inhibition of wild type N-terminal 6 his tagged human PTP1B (1 to 400 residues) expressed in Escherichia coli (Rosetta, DE3) using p-NPP as substrate preincubated for 10 mins followed by substrate addition and measured after 20 mins by absorbance based analysis
T1 sequence (P18031 whole entry): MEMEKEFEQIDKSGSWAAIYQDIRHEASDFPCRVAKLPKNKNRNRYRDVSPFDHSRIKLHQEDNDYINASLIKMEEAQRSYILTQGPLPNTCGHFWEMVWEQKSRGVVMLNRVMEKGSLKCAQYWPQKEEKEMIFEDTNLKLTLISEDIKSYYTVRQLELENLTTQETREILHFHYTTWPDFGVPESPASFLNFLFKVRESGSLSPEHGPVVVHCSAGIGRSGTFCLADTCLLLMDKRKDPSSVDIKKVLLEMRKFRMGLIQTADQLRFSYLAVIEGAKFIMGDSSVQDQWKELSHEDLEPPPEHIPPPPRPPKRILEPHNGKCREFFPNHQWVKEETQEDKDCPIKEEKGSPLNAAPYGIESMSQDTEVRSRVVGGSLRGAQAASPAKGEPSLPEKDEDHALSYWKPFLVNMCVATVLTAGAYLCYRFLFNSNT

[2] = target: T2, Tyrosine-protein phosphatase non-receptor type 1 (Homo sapiens) (UniProt P18031); experiment: Inhibition of wild type N-terminal 6 his tagged human PTP1B (1 to 400 residues) expressed in Escherichia coli (Rosetta, DE3) using p-NPP as substrate at 100 uM preincubated for 10 mins followed by substrate addition and measured after 20 mins by absorbance based analysis; conditions: time 30.0 min
T2 sequence (whole entry): T1 sequence (P18031 whole entry)

[3] = target: T2, Tyrosine-protein phosphatase non-receptor type 1 (Homo sapiens); experiment: Binding affinity to wild type N-terminal 6 his tagged human PTP1B (1 to 400 residues) expressed in Escherichia coli (Rosetta, DE3) assessed as affinity constant by fluorescence based analysis

Row | SMILES | IC50 [1] | other results
1 | CC(=O)O[C@H]1[C@@H]2C(=O)c3c(C)cc(O)c4c3[C@@]1(COC4=O)C1=C2c2c(C)cc(O)c3c(=O)[nH]cc(c23)C1=O | 36.6 µM | –
2 | CCOC(=O)[C@H](Cc1ccccc1)n1cc2c3c(c(C)cc(O)c3c1=O)[C@]1(OC)[C@H](C2=O)[C@]23COC(=O)c4c(O)cc(C)c(c42)C(=O)[C@H]1[C@@H]3OC(C)=O | 55.6 µM | –
3 | CO[C@@H]1OC(=O)c2c(O)cc(C)c3c4c(c(O)c1c23)[C@]12COC(=O)c3c(O)cc(C)c(c31)C(=O)[C@H]4[C@@H]2OC(C)=O | 12.6 µM | –
4 | CO[C@@]12c3c(C)cc(O)c4c(=O)n(-c5ccc(Br)cc5)cc(c34)C(=O)[C@@H]1[C@]13COC(=O)c4c(O)cc(C)c(c41)C(=O)[C@H]2[C@@H]3OC(C)=O | 47.4 µM | –
5 | CO[C@@]12c3c(C)cc(O)c4c3C(=C(O)[C@@H]1[C@]13COC(=O)c5c(O)cc(C)c(c51)C(=O)[C@H]2[C@@H]3OC(C)=O)C=NC4=O | 23.7 µM | –
6 | CO[C@@]12c3c(C)cc(O)c4c(=O)n([C@@H](CC(=O)O)C(=O)O)cc(c34)C(=O)[C@@H]1[C@]13COC(=O)c4c(O)cc(C)c(c41)C(=O)[C@H]2[C@@H]3OC(C)=O | – | inhibition [2]: inactive
7 | CO[C@@]12c3c(C)cc(O)c4c(=O)n(CC(=O)O)cc(c34)C(=O)[C@@H]1[C@]13COC(=O)c4c(O)cc(C)c(c41)C(=O)[C@H]2[C@@H]3OC(C)=O | 13.5 µM | –
8 | CO[C@@]12c3c(C)cc(O)c4c(=O)n(-c5ccc(C)cc5)cc(c34)C(=O)[C@@H]1[C@]13COC(=O)c4c(O)cc(C)c(c41)C(=O)[C@H]2[C@@H]3OC(C)=O | 35.3 µM | –
9 | CC(=O)O[C@H]1[C@@H]2C(=O)c3c(C)cc(O)c4c3[C@@]1(COC4=O)C1=C2c2c(C)cc(O)c3c(=O)n(-c4cccc5cccnc45)cc(c23)C1=O | 6.4 µM | –
10 | CC(=O)O[C@H]1[C@@H]2C(=O)c3c(C)cc(O)c4c3[C@@]1(COC4=O)c1c(O)c(C=O)c3cc(O)cc(C)c3c12 | 3.5 µM | –
11 | CO[C@@]12c3c(C)cc(O)c4c(=O)n(-c5ccc([N+](=O)[O-])cc5)cc(c34)C(=O)[C@@H]1[C@]13COC(=O)c4c(O)cc(C)c(c41)C(=O)[C@H]2[C@@H]3OC(C)=O | 7.7 µM | Ka [3]: 2.1 10^5/M
12 | CO[C@@]12c3c(C)cc(O)c4c(=O)n([C@H](C(=O)O)C(C)C)cc(c34)C(=O)[C@@H]1[C@]13COC(=O)c4c(O)cc(C)c(c41)C(=O)[C@H]2[C@@H]3OC(C)=O | – | inhibition [2]: inactive
13 | CC(=O)O[C@H]1[C@@H]2C(=O)c3c(C)cc(O)c4c3[C@@]1(COC4=O)C1=C2c2c(C)cc(O)c3c(=O)n(-c4ccc(O)cc4[N+](=O)[O-])cc(c23)C1=O | 31.6 µM | –
14 | CO[C@@]12c3c(C)cc(O)c4c(=O)n(-c5ccccc5)cc(c34)C(=O)[C@@H]1[C@]13COC(=O)c4c(O)cc(C)c(c41)C(=O)[C@H]2[C@@H]3OC(C)=O | – | inhibition [2]: inactive
15 | CC(=O)O[C@H]1[C@@H]2C(=O)c3c(C)cc(O)c4c3[C@@]1(COC4=O)c1c(O)c3c4c(c(O)cc(C)c4c12)C(=O)O3 | 82.1 µM | –
16 | COc1cc(-n2cc3c4c(c(C)cc(O)c4c2=O)C2=C(C3=O)[C@]34COC(=O)c5c(O)cc(C)c(c53)C(=O)[C@H]2[C@@H]4OC(C)=O)cc(OC)c1OC | 52.4 µM | –
17 | CC(=O)O[C@H]1[C@@H]2C(=O)c3c(C)cc(O)c4c3[C@@]1(COC4=O)c1c(O)c3c4c(c(O)cc(C)c4c12)C(=O)OC3=O | 21.9 µM | –
18 | CC(=O)O[C@H]1[C@@H]2C(=O)c3c(C)cc(O)c4c3[C@@]1(COC4=O)C1=C2c2c(C)cc(O)c3c(=O)n(-c4cccc5ncccc45)cc(c23)C1=O | 15.9 µM | –
19 | CO[C@@]12c3c(C)cc(O)c4c(=O)n(-c5cccc(Cl)c5)cc(c34)C(=O)[C@@H]1[C@]13COC(=O)c4c(O)cc(C)c(c41)C(=O)[C@H]2[C@@H]3OC(C)=O | 73.1 µM | –
20 | CCOC(=O)[C@H](Cc1ccccc1)n1cc2c3c(c(C)cc(O)c3c1=O)C1=C(C2=O)[C@]23COC(=O)c4c(O)cc(C)c(c42)C(=O)[C@H]1[C@@H]3OC(C)=O | 22.9 µM | –
21 | CO[C@H]1OC(=O)c2c(O)cc(C)c3c4c(c(O)c1c23)[C@]12COC(=O)c3c(O)cc(C)c(c31)C(=O)[C@H]4[C@@H]2OC(C)=O | 38 µM | –
22 | CO[C@@]12c3c(C)cc(O)c4c(=O)n(-c5cccc([N+](=O)[O-])c5)cc(c34)C(=O)[C@@H]1[C@]13COC(=O)c4c(O)cc(C)c(c41)C(=O)[C@H]2[C@@H]3OC(C)=O | 12.3 µM | –

Now from value to compound, other results behind:

Row | IC50 [1] | SMILES | other results
23 | 8 µM | CC(=O)O[C@H]1[C@@H]2C(=O)c3c(C)cc(O)c4c3[C@@]1(COC4=O)C1=C2c2c(C)cc(O)c3c(=O)n(-c4cccc([N+](=O)[O-])c4)cc(c23)C1=O | –
24 | 17.5 µM | CC(=O)O[C@H]1[C@@H]2C(=O)c3c(C)cc(O)c4c3[C@@]1(COC4=O)C1=C2c2c(C)cc(O)c3c(=O)n(-c4ccccc4I)cc(c23)C1=O | –
25 | 3.2 µM | CC(=O)O[C@H]1[C@@H]2C(=O)c3c(C)cc(O)c4c3[C@@]1(COC4=O)C1=C2c2c(C)cc(O)c3c(=O)n(-c4ccc(C)cc4)cc(c23)C1=O | –
26 | 13.2 µM | CC(=O)O[C@H]1[C@@H]2C(=O)c3c(C)cc(O)c4c3[C@@]1(COC4=O)C1=C2c2c(C)cc(O)c3c(=O)n(-c4ccccc4O)cc(c23)C1=O | –
27 | 16.9 µM | COc1ccc(-n2cc3c4c(c(C)cc(O)c4c2=O)C2=C(C3=O)[C@]34COC(=O)c5c(O)cc(C)c(c53)C(=O)[C@H]2[C@@H]4OC(C)=O)cc1OC | –
28 | 78.4 µM | CC(=O)O[C@H]1[C@@H]2C(=O)c3c(C)cc(O)c4c3[C@@]1(COC4=O)C1=C2c2c(C)cc(O)c3c(=O)n(-c4ccccc4)cc(c23)C1=O | –
29 | 38.8 µM | CC(=O)O[C@H]1[C@@H]2C(=O)c3c(C)cc(O)c4c3[C@@]1(COC4=O)C1=C2c2c(C)cc(O)c3c(=O)n(-c4ccccc4Cl)cc(c23)C1=O | –
30 | 15.7 µM | CC(=O)O[C@H]1[C@@H]2C(=O)c3c(C)cc(O)c4c3[C@@]1(COC4=O)C1=C2c2c(C)cc(O)c3c(=O)n(-c4cc(C)ccn4)cc(c23)C1=O | –
31 | 9.3 µM | CC(=O)O[C@H]1[C@@H]2C(=O)c3c(C)cc(O)c4c3[C@@]1(COC4=O)C1=C2c2c(C)cc(O)c3c(=O)n(-c4ccc(Br)cc4)cc(c23)C1=O | –
32 | 14.7 µM | COc1ccc(-n2cc3c4c(c(C)cc(O)c4c2=O)C2=C(C3=O)[C@]34COC(=O)c5c(O)cc(C)c(c53)C(=O)[C@H]2[C@@H]4OC(C)=O)cc1 | –
33 | 5.7 µM | CC(=O)O[C@H]1[C@@H]2C(=O)c3c(C)cc(O)c4c3[C@@]1(COC4=O)C1=C2c2c(C)cc(O)c3c(=O)n(-c4ccc5ncccc5c4)cc(c23)C1=O | –
34 | 35 µM | CC(=O)O[C@H]1[C@@H]2C(=O)c3c(C)cc(O)c4c3[C@@]1(COC4=O)C1=C2c2c(C)cc(O)c3c(=O)n(-c4ccccc4F)cc(c23)C1=O | –
35 | 13.9 µM | CC(=O)O[C@H]1[C@@H]2C(=O)c3c(C)cc(O)c4c3[C@@]1(COC4=O)C1=C2c2c(C)cc(O)c3c(=O)n(-c4ccc(Cl)cc4)cc(c23)C1=O | –
36 | 27.2 µM | CC(=O)O[C@H]1[C@@H]2C(=O)c3c(C)cc(O)c4c3[C@@]1(COC4=O)C1=C2c2c(C)cc(O)c3c(=O)n(-c4ccccc4[N+](=O)[O-])cc(c23)C1=O | –
37 | 23.7 µM | CC(=O)O[C@H]1[C@@H]2C(=O)c3c(C)cc(O)c4c3[C@@]1(COC4=O)C1=C2c2c(C)cc(O)c3c(=O)n(-c4cccc(Cl)c4)cc(c23)C1=O | –
38 | 56.9 µM | CC(=O)O[C@H]1[C@@H]2C(=O)c3c(C)cc(O)c4c3[C@@]1(COC4=O)C1=C2c2c(C)cc(O)c3c(=O)n(-c4cccnc4)cc(c23)C1=O | –
39 | 23.3 µM | CC(=O)O[C@H]1[C@@H]2C(=O)c3c(C)cc(O)c4c3[C@@]1(COC4=O)C1=C2c2c(C)cc(O)c3c(=O)n(-c4cnc5ccccc5c4)cc(c23)C1=O | –
40 | 13 µM | CC(=O)O[C@H]1[C@@H]2C(=O)c3c(C)cc(O)c4c3[C@@]1(COC4=O)C1=C2c2c(C)cc(O)c3c(=O)n(-c4ccc(I)cc4)cc(c23)C1=O | –
41 | 23.7 µM | CC(=O)O[C@H]1[C@@H]2C(=O)c3c(C)cc(O)c4c3[C@@]1(COC4=O)C1=C2c2c(C)cc(O)c3c(=O)n(-c4ccc(O)cc4)cc(c23)C1=O | –
42 | 32.3 µM | CC(=O)O[C@H]1[C@@H]2C(=O)c3c(C)cc(O)c4c3[C@@]1(COC4=O)C1=C2c2c(C)cc(O)c3c(=O)n(-c4ncccc4C)cc(c23)C1=O | –
43 | 36.4 µM | CC(=O)O[C@H]1[C@@H]2C(=O)c3c(C)cc(O)c4c3[C@@]1(COC4=O)C1=C2c2c(C)cc(O)c3c(=O)n(-c4ccccn4)cc(c23)C1=O | –
